Measured values taken from ChEMBL document CHEMBL3885861, “Open TG-GATES”.

Organism: Rattus norvegicus
Assay: Open TG-GATES - Regimen: Daily Repeat
Assay type: toxicity, organism-based, Sprague-Dawley
Set-up: regimen Daily Repeat, gender Male, age 6 weeks
Conditions: in vivo, po, 15 mg/kg, route gavage, dose level Middle; for APTT / Bas / Eos / Fbg / Hb / Ht / Lym / MCH / MCHC / MCV / Mono / Neu / PT / Plat / RBC / Ret / WBC: tissue Blood; for KIDNEY_L / KIDNEY_R / KIDNEY_TOTAL: tissue Kidney; for LIVER: tissue Liver; for A/G / ALP / ALT / AST / BUN / CRE / Ca / Cl / DBIL / GLC / IP / K / LDH / Na / PL / RALB / TBIL / TC / TG / TP / gamma-GTP: tissue Plasma

## CC1=C(CC(=O)O)c2cc(F)ccc2/C1=C\c1ccc([S+](C)[O-])cc1 (configuration not stated)
72 h, time 3 day
  TERMINAL_BW: 235.3 g
  APTT: 17.2 s
  Bas: 0%
  Eos: 1%
  Fbg: 309 mg/dL
  Hb: 14.2 g/dL
  Ht: 43%
  Lym: 75.8%
  MCH: 21.2 pg
  MCHC: 33%
  MCV: 64.3 fL
  Mono: 2.6%
  Neu: 20%
  PT: 13.7 s
  Plat: 120.1 x10_4/uL
  RBC: 671.2 x10_4/ul
  Ret: 7.1%
  WBC: 90 x10_2/uL
  KIDNEY_L: 1 g
  KIDNEY_R: 1 g
  KIDNEY_TOTAL: 2 g
  LIVER: 11.3 g
  A/G: 0.9
  ALP: 1549.6 IU/L
  ALT: 44.2 IU/L
  AST: 72.4 IU/L
  BUN: 15.8 mg/dL
  CRE: 0.2 mg/dL
  Ca: 11.1 mg/dL
  Cl: 106 meq/L
  DBIL: 0.012 mg/dL
  GLC: 185.2 mg/dL
  IP: 7.3 mg/dL
  K: 4 meq/L
  LDH: 93.8 IU/L
  Na: 142.8 meq/L
  PL: 159 mg/dL
  RALB: 2.7 g/dL
  TBIL: 0.018 mg/dL
  TC: 85.2 mg/dL
  TG: 98.6 mg/dL
  TP: 5.6 g/dL
  gamma-GTP: 1 IU/L
[…], time 7 day
  TERMINAL_BW: 268.9 g
  APTT: 17.1 s
  Bas: 0%
  Eos: 1%
  Fbg: 295.2 mg/dL
  Hb: 14.4 g/dL
  Ht: 42.6%
  Lym: 77.6%
  MCH: 21.2 pg
  MCHC: 33.8%
  MCV: 62.6 fL
  Mono: 2.4%
  Neu: 18.8%
  PT: 13.5 s
  Plat: 137.1 x10_4/uL
  RBC: 681.2 x10_4/ul
  Ret: 6.1%
  WBC: 102.7 x10_2/uL
  KIDNEY_L: 1.2 g
  KIDNEY_R: 1.1 g
  KIDNEY_TOTAL: 2.3 g
  LIVER: 12.6 g
  A/G: 0.9
  ALP: 1603.8 IU/L
  ALT: 41.2 IU/L
  AST: 66.8 IU/L
  BUN: 17.2 mg/dL
  CRE: 0.2 mg/dL
  Ca: 11 mg/dL
  Cl: 104 meq/L
  DBIL: 0.016 mg/dL
  GLC: 183 mg/dL
  IP: 7.3 mg/dL
  K: 4.3 meq/L
  LDH: 87.4 IU/L
  Na: 141 meq/L
  PL: 187.6 mg/dL
  RALB: 2.8 g/dL
  TBIL: 0.016 mg/dL
  TC: 91.6 mg/dL
  TG: 171.6 mg/dL
  TP: 5.9 g/dL
  gamma-GTP: 1 IU/L
[…], time 14 day
  TERMINAL_BW: 338.3 g
  APTT: 18 s
  Bas: 0%
  Eos: 1%
  Fbg: 325.2 mg/dL
  Hb: 14.6 g/dL
  Ht: 42.9%
  Lym: 73.2%
  MCH: 20.5 pg
  MCHC: 34.1%
  MCV: 60 fL
  Mono: 2.2%
  Neu: 23%
  PT: 13.7 s
  Plat: 131.8 x10_4/uL
  RBC: 715.4 x10_4/ul
  Ret: 4.6%
  WBC: 104.2 x10_2/uL
  KIDNEY_L: 1.3 g
  KIDNEY_R: 1.2 g
  KIDNEY_TOTAL: 2.5 g
  LIVER: 15.2 g
  A/G: 0.9
  ALP: 1475.4 IU/L
  ALT: 42.6 IU/L
  AST: 65.6 IU/L
  BUN: 17.4 mg/dL
  CRE: 0.3 mg/dL
  Ca: 10.9 mg/dL
  Cl: 105.6 meq/L
  DBIL: 0.018 mg/dL
  GLC: 183 mg/dL
  IP: 6.8 mg/dL
  K: 3.8 meq/L
  LDH: 75.4 IU/L
  Na: 143.4 meq/L
  PL: 173.4 mg/dL
  RALB: 2.8 g/dL
  TBIL: 0.042 mg/dL
  TC: 81.4 mg/dL
  TG: 191 mg/dL
  TP: 6 g/dL
  gamma-GTP: 1 IU/L
[…], time 28 day
  TERMINAL_BW: 411.4 g
  APTT: 20.6 s
  Bas: 0%
  Eos: 0.8%
  Fbg: 263.6 mg/dL
  Hb: 14.9 g/dL
  Ht: 45.8%
  Lym: 76%
  MCH: 18.9 pg
  MCHC: 32.6%
  MCV: 58 fL
  Mono: 2%
  Neu: 20.8%
  PT: 12.6 s
  Plat: 111.8 x10_4/uL
  RBC: 792.6 x10_4/ul
  Ret: 3.7%
  WBC: 112.4 x10_2/uL
  KIDNEY_L: 1.4 g
  KIDNEY_R: 1.4 g
  KIDNEY_TOTAL: 2.8 g
  LIVER: 17.1 g
  A/G: 0.8
  ALP: 1137.2 IU/L
  ALT: 35.8 IU/L
  AST: 62 IU/L
  BUN: 18.2 mg/dL
  CRE: 0.3 mg/dL
  Ca: 10.7 mg/dL
  Cl: 103.8 meq/L
  DBIL: 0.008 mg/dL
  GLC: 178.4 mg/dL
  IP: 6.9 mg/dL
  K: 3.8 meq/L
  LDH: 64.6 IU/L
  Na: 142.8 meq/L
  PL: 153.4 mg/dL
  RALB: 2.8 g/dL
  TBIL: 0.076 mg/dL
  TC: 74.8 mg/dL
  TG: 162.8 mg/dL
  TP: 6.2 g/dL
  gamma-GTP: 1 IU/L
